Two compounds from patent publication US20100234238A1, “METHOD FOR PROFILING KINASE INHIBITORS” (Janssen Pharmaceutica N V, priority 2006, published 2010) can be followed below.

In experiment [1] the test system is tyrosine kinase activity in cell line lysates. Briefly: Peptide array profiling of 9 cell line lysates in the presence of MTKI or Tarceva. Format: biochemical. The note with it: GTL16 lysates; 5 μM. The procedure:
To test whether other EGFR inhibitors, related to MTKI, such as Tarceva (erlotinib; OSI pharmaceuticals), are also amenable to this response prediction methodology, 9 cell lines were profiled in the presence of MTKI, or Tarceva (5 μM in both cases). […] The value of the previously derived MTKI prediction peptides is illustrated in Tables 6A to C. Based on these peptides also response to Tarceva can be predicted with identical accuracy as for MTKI (and with the same false predictions, in casu H2009 and MOLT4).

Experiment [2] has as its system cMet kinase activity in cell lysates. The experiment is described as follows: 140-tyrosine peptide array profiling of cell lysates with cMET inhibitor 605. The class given is biochemical. To be noted: responder cell lysates; 1 μM compound. The text has this: To examine whether the currently available 140-tyrosine peptide arrays from Pamgene will also detect other kinase activities then those described above, another compound was profiled using the same methodology: this is an exquisitely selective inhibitor of the cMET receptor tyrosine kinase (see US2007 0203136 A1) and with formula: […]
(§1) As shown in Example 7, clear-cut differences in peptide phosphorylation inhibition by 605 could be identified in the responder lysates versus non-responder lysates. Note that the cMet signature peptide set features two peptides derived from Ron, the closest homologue to cMet. […] The 605 signature peptides show no overlap at all with the MTKI signature peptides set, consistent with the absence of any overlap in kinase specificity between MTKI and 605.

Experiment [3] deals with HGF-induced colony formation. Briefly: HGF-induced colony formation (responsiveness to 605). The class given is cell-based. On the set-up: key: R = Responder to cMET; NR = Non-Responder to cMET.
In the next experiment the target is Ron kinase (Homo sapiens, UniProt Q04912). The experiment is described as follows: Purified Ron kinase inhibition. The note with it: 1 μM. Format: biochemical.
Ron kinase, sequence (Q04912 25-1400): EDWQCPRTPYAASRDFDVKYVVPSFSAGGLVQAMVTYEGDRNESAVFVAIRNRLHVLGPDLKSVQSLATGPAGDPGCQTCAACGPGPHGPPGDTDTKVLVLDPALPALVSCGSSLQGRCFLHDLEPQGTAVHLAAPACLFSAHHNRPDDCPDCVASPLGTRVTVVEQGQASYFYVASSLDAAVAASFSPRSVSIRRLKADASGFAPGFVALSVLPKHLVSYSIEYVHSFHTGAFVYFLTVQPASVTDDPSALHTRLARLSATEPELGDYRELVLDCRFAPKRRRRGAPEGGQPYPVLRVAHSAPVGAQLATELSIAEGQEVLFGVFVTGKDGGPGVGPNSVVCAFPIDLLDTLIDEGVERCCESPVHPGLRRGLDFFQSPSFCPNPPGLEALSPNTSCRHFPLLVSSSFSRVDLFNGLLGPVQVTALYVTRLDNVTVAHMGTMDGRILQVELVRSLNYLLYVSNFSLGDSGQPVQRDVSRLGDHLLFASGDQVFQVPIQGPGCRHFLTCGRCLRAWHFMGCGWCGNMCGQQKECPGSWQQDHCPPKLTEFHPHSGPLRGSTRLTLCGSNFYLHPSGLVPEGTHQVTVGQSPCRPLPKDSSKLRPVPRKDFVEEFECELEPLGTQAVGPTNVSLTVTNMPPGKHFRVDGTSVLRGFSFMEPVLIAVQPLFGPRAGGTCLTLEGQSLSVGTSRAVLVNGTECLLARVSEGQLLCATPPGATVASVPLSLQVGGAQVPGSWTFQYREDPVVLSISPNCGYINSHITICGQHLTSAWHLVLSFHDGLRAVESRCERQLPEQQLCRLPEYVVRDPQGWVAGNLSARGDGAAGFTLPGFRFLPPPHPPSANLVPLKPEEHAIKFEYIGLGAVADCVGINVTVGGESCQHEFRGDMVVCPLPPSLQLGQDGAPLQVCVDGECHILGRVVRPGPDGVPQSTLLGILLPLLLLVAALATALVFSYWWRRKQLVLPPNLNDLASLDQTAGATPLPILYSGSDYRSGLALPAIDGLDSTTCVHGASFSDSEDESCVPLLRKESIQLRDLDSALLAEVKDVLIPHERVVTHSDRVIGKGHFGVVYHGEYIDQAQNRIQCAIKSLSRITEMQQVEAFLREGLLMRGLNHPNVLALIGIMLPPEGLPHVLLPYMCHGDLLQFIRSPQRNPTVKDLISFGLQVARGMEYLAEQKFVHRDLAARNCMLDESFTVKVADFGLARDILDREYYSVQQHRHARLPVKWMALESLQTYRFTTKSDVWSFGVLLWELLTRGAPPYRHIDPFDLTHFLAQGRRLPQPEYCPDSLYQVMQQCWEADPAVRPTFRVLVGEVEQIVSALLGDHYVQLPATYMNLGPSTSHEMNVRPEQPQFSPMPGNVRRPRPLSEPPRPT
Source text: as §1

Molecules are shown by their SMILES.

With `C#Cc1cccc(Nc2ncnc3cc(OCCOC)c(OCCOC)cc23)c1` [Tarceva, reference compound], the “activity in lysate inhibition profile compared to MTKI” value in experiment [1] is reported as “additional activity”.

In the case of `Cn1cc(-c2ccc3nnc(C(F)(F)c4ccc5ncccc5c4)n3n2)cn1` [compound 605], in experiment [2], the “inhibition of peptide phosphorylation” value is listed as “significant inhibition”. Besides, the response status result in experiment [3] (A549 cell line) is listed as “NR”; in experiment [3] (Caco2 cell line), “NR”; in experiment [3] (H322 cell line) it was “NR”; in experiment [3] (H441 cell line) it was “R”; in experiment [3] (H1792 cell line) it was “R”; in experiment [3] (H2106 cell line), “NR”. Also, the response status result is listed as “NR” in experiment [3] (H2122 cell line); “R” in experiment [3] (Kato2 cell line); “R” in experiment [3] (MKN45 cell line); “NR” in experiment [3] (N87 cell line); “R” in experiment [3] (SNU5 cell line); “NR” in experiment [3] (SNU484 cell line). Moreover, the response status entry in experiment [3] (WIDR cell line) was “R”; in experiment [3] (YKG cell line), “NR”. Besides, at Ron kinase, the “inhibition of purified Ron kinase” value is “does not inhibit”.
